Measurements: PubChem BioAssay AID330 (DTP/NCI, 2004)
Several values for one entry are separate records, joined by “and”; a condition that tells them apart may be missing. Equal entries are not always repeated. Inconclusive results and toxic doses are left out. Square brackets hold non-standard residues; d marks the D form. Peptide text beside a SMILES is read from it. * marks the point of attachment. ξ: configuration not given here. ξF = NC(Cc1ccccc1)C(=O)O; Cbz = O=C(OCc1ccccc1)*; Sar = CNCC(=O)O

Tested on: P388 leukemia ip, CD2F1 mice, survival T/C
Assay: NCI In Vivo Anticancer Drug Screen. Data for tumor model P388 Leukemia (intraperitoneal) in CD2F1 (CDF1) mice
Conditions: endpoint: median survival time, higher = longer survival
In short: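 Mice carrying the transplanted tumor received test compound or vehicle. Survival was recorded in each group, and the value is the treated-group measurement divided by that of the vehicle-treated control group.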

[1] = dose: 50.0 mg/kg/injection, schedule: Q01DX009 (ip), vehicle: saline
[2] = dose: 100.0 mg/kg/injection, schedule: Q01DX009 (ip), vehicle: saline
[3] = dose: 200.0 mg/kg/injection, schedule: Q01DX009 (ip), vehicle: saline

Q: Which T/C (dose: 100.0 mg/kg/injection, schedule: Q04DX003 (ip), vehicle: saline) does the source give for `Cc1ccc2c(c1)C(O)C(N)CCO2` (stereo unspecified) here?
A: 100 % of control

Q: And the T/C (dose: 200.0 mg/kg/injection, schedule: Q04DX003 (ip), vehicle: saline)?
A: 102 % of control

Q: Which results are given for `CN(CC(=O)NC(Cc1ccccc1)C(=O)O)C(=O)OCc1ccccc1` (stereo unspecified) (Cbz-[Sar]-[ξF]-OH)?
A: T/C (dose: 50.0 mg/kg/injection, schedule: Q01DX005 (ip), vehicle: saline with Tween-80): 105 % of control; T/C (dose: 100.0 mg/kg/injection, schedule: Q01DX005 (ip), vehicle: saline with Tween-80): 102 % of control; T/C (dose: 200.0 mg/kg/injection, schedule: Q01DX005 (ip), vehicle: saline with Tween-80): 100 % of control

Q: What does the source list for `O=C(O)CCCCc1ccc(CCCCC(=O)O)cc1`?
A: T/C (dose: 18.75 mg/kg/injection, schedule: Q04DX003 (ip), vehicle: Klucel (hydroxypropylcellulose) (HPC)): 106 % of control; T/C (dose: 37.5 mg/kg/injection, schedule: Q04DX003 (ip), vehicle: Klucel (hydroxypropylcellulose) (HPC)): 111 % of control; T/C (dose: 75.0 mg/kg/injection, schedule: Q04DX003 (ip), vehicle: Klucel (hydroxypropylcellulose) (HPC)): 113 % of control

Q: `O=C1OC(c2ccccc2)CC1N1CCOCC1` (stereo unspecified) was tested. Which T/C (dose: 100.0 mg/kg/injection, schedule: Q01DX009 (ip), vehicle: saline with Tween-80) did it give?
A: 100 % of control

Q: What about the T/C (dose: 100.0 mg/kg/injection, schedule: Q04DX003 (ip), vehicle: saline sonified) of the same molecule?
A: 100 % of control

Q: What about the T/C (dose: 200.0 mg/kg/injection, schedule: Q01DX009 (ip), vehicle: saline with Tween-80) of the same molecule?
A: 100 % of control

Q: What about the T/C (dose: 400.0 mg/kg/injection, schedule: Q01DX009 (ip), vehicle: saline with Tween-80) of the same molecule?
A: 100 % of control

Q: And the T/C (dose: 400.0 mg/kg/injection, schedule: Q04DX003 (ip), vehicle: saline sonified)?
A: 89 % of control

Q: How did the T/C (dose: 50.0 mg/kg/injection, schedule: Q01DX005 (ip), vehicle: saline) turn out when `CCN(CC)CCOC(=O)c1cc2cc3cc(C(=O)OCCN(CC)CC)c(=O)oc3c(C)c2oc1=O` was run?
A: 113 % of control

Q: What about the T/C (dose: 100.0 mg/kg/injection, schedule: Q01DX005 (ip), vehicle: saline) of the same molecule?
A: 114 % of control

Q: What about the T/C (dose: 200.0 mg/kg/injection, schedule: Q01DX005 (ip), vehicle: saline) of the same molecule?
A: 107 % of control

Q: Which results are given for `CN(C)c1ccc(N/C=C/C(=O)c2ccccc2O)cc1`?
A: T/C (dose: 100.0 mg/kg/injection, schedule: Q01DX001 (ip), vehicle: other): 103 % of control; T/C (dose: 200.0 mg/kg/injection, schedule: Q01DX001 (ip), vehicle: other): 100 % of control; T/C (dose: 400.0 mg/kg/injection, schedule: Q01DX001 (ip), vehicle: other): 96 % of control

Q: `CC(=O)OCC12C(=O)C(O)C(C)C3(CC(c4ccoc4)OC3OC(C)=O)C1CCCC21CO1` (stereo unspecified) was tested. Which T/C (dose: 15.0 mg/kg/injection, schedule: Q01DX005 (ip), vehicle: Klucel (hydroxypropylcellulose) (HPC)) did it give?
A: 105 % of control

Q: What about the T/C (dose: 30.0 mg/kg/injection, schedule: Q01DX005 (ip), vehicle: Klucel (hydroxypropylcellulose) (HPC)) of the same molecule?
A: 105 % of control

Q: What about the T/C (dose: 60.0 mg/kg/injection, schedule: Q01DX005 (ip), vehicle: Klucel (hydroxypropylcellulose) (HPC)) of the same molecule?
A: 100 % of control

Q: How did the T/C (dose: 0.39 mg/kg/injection, schedule: Q01DX009 (ip), vehicle: saline) turn out when `CC(=O)Oc1ccc2c3c1O[C@H]1[C@@H](OC(C)=O)C=C[C@H]4[C@@H](C2)N(C)CC[C@@]341` was run?
A: 100 % of control

Q: And the T/C (dose: 0.78 mg/kg/injection, schedule: Q01DX009 (ip), vehicle: saline)?
A: 101 % of control

Q: What about the T/C (dose: 1.56 mg/kg/injection, schedule: Q01DX009 (ip), vehicle: saline) of the same molecule?
A: 94 % of control

Q: What about the T/C (dose: 3.12 mg/kg/injection, schedule: Q01DX009 (ip), vehicle: saline) of the same molecule?
A: 95 % of control

Q: And the T/C (dose: 6.25 mg/kg/injection, schedule: Q01DX009 (ip), vehicle: saline)?
A: 100 % of control

Q: What about the T/C (dose: 12.5 mg/kg/injection, schedule: Q01DX009 (ip), vehicle: saline) of the same molecule?
A: 110 % of control

Q: And the T/C (dose: 25.0 mg/kg/injection, schedule: Q01DX009 (ip), vehicle: saline)?
A: 100 % of control

Q: And the T/C [1]?
A: 108 % of control

Q: And the T/C [2]?
A: 117 % of control

Q: What about the T/C [3] of the same molecule?
A: 110 % of control

Q: Which results are given for `Cc1ccc2c(c1)C1(SC(C)C(=O)N1c1ccc(Cl)cc1)C(=O)N2CN1CCOCC1` (stereo unspecified)?
A: T/C (dose: 60.0 mg/kg/injection, schedule: Q01DX005 (ip), vehicle: saline with Tween-80): 113 % of control; T/C (dose: 120.0 mg/kg/injection, schedule: Q01DX005 (ip), vehicle: saline with Tween-80): 100 % of control; T/C (dose: 240.0 mg/kg/injection, schedule: Q01DX005 (ip), vehicle: saline with Tween-80): 121 % of control

Q: Which results are given for `CC1S(=O)(=O)OCCOS1(=O)=O`?
A: T/C (dose: 12.5 mg/kg/injection, schedule: Q01DX005 (ip), vehicle: Klucel (hydroxypropylcellulose) (HPC)): 162 % of control; T/C (dose: 25.0 mg/kg/injection, schedule: Q01DX005 (ip), vehicle: Klucel (hydroxypropylcellulose) (HPC)): 175 % of control and 275 % of control; T/C (dose: 50.0 mg/kg/injection, schedule: Q01DX005 (ip), vehicle: Klucel (hydroxypropylcellulose) (HPC)): 165 % of control and 288 % of control

Q: How did the T/C [1] turn out when `COc1ccc(OC)c(N=Cc2cccs2)c1` was run?
A: 90 % of control

Q: And the T/C [2]?
A: 100 % of control

Q: And the T/C [3]?
A: 92 % of control
